Results: patent EP0354047A2, “Herbicidal method using atrazine” (MAY & BAKER LIMITED, priority 1988, dated 1990)

How the values were obtained:
Bidens pilosa = test: Experiment 3: glasshouse, post-emergence, fresh weight after 19 days, % inhibition of growth; format: in vivo; conditions: 2 leaves
Protocol: (§1) A series of experiments was carried out to determine the nature of the biological interaction between atrazine and five compounds of general formula I on a range of weed species. […] The growth stages of the plants at spraying are also presented with the results. Agricultural surfactant (nonyl phenol ethylene oxide condensate containing 9 moles ethylene oxide marketed as 'Agral') was added to all spray dilutions to give 0.2% v/v concentration. […] After 19 days the fresh weight of vegetation in each pot was determined. […] E = […]00003:character} where E, X and Y are percentage inhibition of growth. In addition, the ED50 or ED90 values (the application rates giving 50% or 90% inhibition of growth, respectively) were calculated from the results for the piperidinedione alone and with increasing rates of atrazine.

Solanum nigrum = test: as above; format: in vivo; conditions: for ED₉₀: Atrazine alone; for inhibition at 8 g/ha / inhibition at 16 g/ha / inhibition at 31 g/ha / inhibition at 63 g/ha / inhibition at 125 g/ha: Solanum nigrum, post-emergence; for inhibition at 8 g/ha: Atrazine 8 g/ha alone; for inhibition at 16 g/ha: Atrazine 16 g/ha alone; for inhibition at 31 g/ha: Atrazine 31 g/ha alone; for inhibition at 63 g/ha: Atrazine 63 g/ha alone; for inhibition at 125 g/ha: Atrazine 125 g/ha alone
Protocol: as §1

Eleusine indica [1] = test: as above; format: in vivo; conditions: 3 leaves
Protocol: as §1

Brassica kaber = test: as above; format: in vivo; conditions: for ED₅₀ / ED₉₀: Atrazine alone; for inhibition at 8 g/ha / inhibition at 16 g/ha / inhibition at 31 g/ha / inhibition at 63 g/ha / inhibition at 125 g/ha: Mutarda arvensis, post-emergence; for inhibition at 8 g/ha: Atrazine 8 g/ha alone; for inhibition at 16 g/ha: Atrazine 16 g/ha alone; for inhibition at 31 g/ha: Atrazine 31 g/ha alone; for inhibition at 63 g/ha: Atrazine 63 g/ha alone; for inhibition at 125 g/ha: Atrazine 125 g/ha alone
Protocol: as §1

Sesbania exactata = test: as above; format: in vivo; conditions: 2 leaves
Protocol: as §1

Digitaria sanguinalis = test: as above; format: in vivo; conditions: 3 leaves
Protocol: as §1

Amaranthus retroflexus = test: as above; format: in vivo; conditions: for inhibition at 8 g/ha / inhibition at 16 g/ha / inhibition at 31 g/ha / inhibition at 63 g/ha / inhibition at 125 g/ha: Amaranthus retroflexus, post-emergence; for inhibition at 8 g/ha: Atrazine 8 g/ha alone; for inhibition at 16 g/ha: Atrazine 16 g/ha alone; for inhibition at 31 g/ha: Atrazine 31 g/ha alone; for inhibition at 63 g/ha: Atrazine 63 g/ha alone; for inhibition at 125 g/ha: Atrazine 125 g/ha alone; for ED₉₀: Atrazine alone
Protocol: as §1

Xanthium strumarium = test: as above; format: in vivo; conditions: 2 leaves
Protocol: as §1

maize var.Irla = test: Experiment 5: glasshouse, crop plants at 3 leaf stage, percentage phytotoxicity after 12 days; conditions: for % crop phytotoxicity Maize (3 leaves): Compound 74 0 g/ha
Protocol: An experiment was carried out to determine the biological interaction between atrazine and Compound 74 on maize. A wide range of dose rates of atrazine i.e. 250, 500, 1000 and 2000 g/ha (in a commercial suspension concentrate formulation containing 500g/l w/v atrazine) and of Compound 74 i.e. 31, 63, 125, 250, 1000 and 2000 g/ha (in a composition according to Example 2 as described hereinafter) were applied in a spray volume of 290litres/ha to four replicate 10cm square plastic plant pots of loam soil containing one maize plant, at the 3 leaf growth stage. Agricultural surfactant ('Agral') was added to the spray dilutions to give 0.2%v/v concentration.
After spraying the pots were arranged in randomised blocks in a glasshouse and watered as necessary. After 12 days the plants were assessed for percentage phytotoxicity (reduction in green area compared with unsprayed plants) (0 = no effect 100 = complete destruction).
E = X + Y […] where E, X and Y are percentage phytotoxicity.
The ED values were then used to plot an isobole according to the method of P.M.L. Tammes op cit. The results of percentage phytotoxicity, the ED₂₀ values calculated from them and the calculated expected value are given in Table 9.

Eleusine indica [2] = test: Experiment 2: glasshouse experiment, seedlings at 4-leaf stage, percentage phytotoxicity after 19 days; format: in vivo
Protocol: Agricultural surfactant - nonylphenol ethylene oxide condensate containing 9 moles ethylene oxide (in a commercial composition) was added to all spray dilutions to give 0.2% v/v concentration. […] The ED50 values were as follows:- The results were then used to plot an isobole with a "two-sided effect" according to the methods of […] op. cit. The isobole produced, shown hereinafter in Figure 1 was clearly a type III curve ([…]., page 75), characteristic of synergism.

CCNc1nc(Cl)nc(NC(C)C)n1 [Atrazine, 2-chloro-4-ethylamino-6-isopropylamino-1,3,5-triazine]
ED₅₀ (Bidens pilosa; Atrazine alone): ED₅₀(g/ha)63.17 | inhibition at 8 g/ha (Bidens pilosa; Bidens pilosa, post-emergence, Atrazine 8 g/ha alone): 0% | inhibition at 16 g/ha (Bidens pilosa; Bidens pilosa, post-emergence, Atrazine 16 g/ha alone): 0% | inhibition at 31 g/ha (Bidens pilosa; Bidens pilosa, post-emergence, Atrazine 31 g/ha alone): 5% | inhibition at 63 g/ha (Bidens pilosa; Bidens pilosa, post-emergence, Atrazine 63 g/ha alone): 46% | inhibition at 125 g/ha (Bidens pilosa; Bidens pilosa, post-emergence, Atrazine 125 g/ha alone): 92% | ED₉₀ (Solanum nigrum; 1-2 leaves, Table 4): ED₉₀(g/ha) 121.27 | ED₉₀ (Solanum nigrum; 1 leaf, Table 6): ED₉₀(g/ha) 59.35 | ED₉₀ (Solanum nigrum; 2 leaves, Table 7): ED₉₀(g/ha) 72.94 | inhibition at 8 g/ha (Solanum nigrum; 1-2 leaves, Table 4): 9% | inhibition at 8 g/ha (Solanum nigrum; 1 leaf, Table 6): 19% | inhibition at 8 g/ha (Solanum nigrum; 2 leaves, Table 7): 6% | inhibition at 16 g/ha (Solanum nigrum; 1-2 leaves, Table 4): 47% | inhibition at 16 g/ha (Solanum nigrum; 1 leaf, Table 6): 45% | inhibition at 16 g/ha (Solanum nigrum; 2 leaves, Table 7): 27% | inhibition at 31 g/ha (Solanum nigrum; 1-2 leaves, Table 4): 47% | inhibition at 31 g/ha (Solanum nigrum; 1 leaf, Table 6): 73% | inhibition at 31 g/ha (Solanum nigrum; 2 leaves, Table 7): 35% | inhibition at 63 g/ha (Solanum nigrum; 1-2 leaves, Table 4): 67% | inhibition at 63 g/ha (Solanum nigrum; 1 leaf, Table 6): 94% | inhibition at 63 g/ha (Solanum nigrum; 2 leaves, Table 7): 76% | inhibition at 125 g/ha (Solanum nigrum; 1-2 leaves, Table 4): 90% | inhibition at 125 g/ha (Solanum nigrum; 1 leaf, Table 6): 97% | inhibition at 125 g/ha (Solanum nigrum; 2 leaves, Table 7): 99% | ED₅₀ (Eleusine indica [1]; Atrazine alone): ED₅₀ (g/ha)664.61 | inhibition at 125 g/ha (Eleusine indica [1]; Eleusine indica, post-emergence, Atrazine 125 g/ha alone): 4% | inhibition at 500 g/ha (Eleusine indica [1]; Eleusine indica, post-emergence, Atrazine 500 g/ha alone): 36% | inhibition at 1000 g/ha (Eleusine indica [1]; Eleusine indica, post-emergence, Atrazine 1000 g/ha alone): 66% | ED₅₀ (Brassica kaber; 2-3 leaves, Table 4): ED₅₀(g/ha) 88.39 | ED₉₀ (Brassica kaber; 2 leaves, Table 5): ED₉₀(g/ha) 77 | ED₉₀ (Brassica kaber; 2 leaves, Table 6): ED₉₀(g/ha) 62.14 | ED₅₀ (Brassica kaber; 2 leaves, Table 7): ED₅₀(g/ha) 78.24 | inhibition at 8 g/ha (Brassica kaber; 2-3 leaves, Table 4): 16% | inhibition at 8 g/ha (Brassica kaber; 2 leaves, Table 5): 0% | inhibition at 8 g/ha (Brassica kaber; 2 leaves, Table 6): 0% | inhibition at 8 g/ha (Brassica kaber; 2 leaves, Table 7): 0% | inhibition at 16 g/ha (Brassica kaber; 2-3 leaves, Table 4): 5% | inhibition at 16 g/ha (Brassica kaber; 2 leaves, Table 5): 21% | inhibition at 16 g/ha (Brassica kaber; 2 leaves, Table 6): 35% | inhibition at 16 g/ha (Brassica kaber; 2 leaves, Table 7): 0% | inhibition at 31 g/ha (Brassica kaber; 2-3 leaves, Table 4): 19% | inhibition at 31 g/ha (Brassica kaber; 2 leaves, Table 5): 42% | inhibition at 31 g/ha (Brassica kaber; 2 leaves, Table 6): 41% | inhibition at 31 g/ha (Brassica kaber; 2 leaves, Table 7): 17% | inhibition at 63 g/ha (Brassica kaber; 2-3 leaves, Table 4): 30% | inhibition at 63 g/ha (Brassica kaber; 2 leaves, Table 5): 60% | inhibition at 63 g/ha (Brassica kaber; 2 leaves, Table 6): 91% | inhibition at 63 g/ha (Brassica kaber; 2 leaves, Table 7): 27% | inhibition at 125 g/ha (Brassica kaber; 2-3 leaves, Table 4): 57% | inhibition at 125 g/ha (Brassica kaber; 2 leaves, Table 5): 100% | inhibition at 125 g/ha (Brassica kaber; 2 leaves, Table 6): 100% | inhibition at 125 g/ha (Brassica kaber; 2 leaves, Table 7): 75% | ED₉₀ (Sesbania exactata; Atrazine alone): ED₉₀(g/ha)76.91 | inhibition at 8 g/ha (Sesbania exactata; Sesbania, post-emergence, Atrazine 8 g/ha alone): 21% | inhibition at 16 g/ha (Sesbania exactata; Sesbania, post-emergence, Atrazine 16 g/ha alone): 34% | inhibition at 31 g/ha (Sesbania exactata; Sesbania, post-emergence, Atrazine 31 g/ha alone): 68% | inhibition at 63 g/ha (Sesbania exactata; Sesbania, post-emergence, Atrazine 63 g/ha alone): 86% | inhibition at 125 g/ha (Sesbania exactata; Sesbania, post-emergence, Atrazine 125 g/ha alone): 96% | ED₉₀ (Digitaria sanguinalis; Atrazine alone): ED₉₀ (g/ha) ∞ | inhibition at 125 g/ha (Digitaria sanguinalis; Digitaria sanguinalis, post-emergence, Atrazine 125 g/ha alone): 25% | inhibition at 500 g/ha (Digitaria sanguinalis; Digitaria sanguinalis, post-emergence, Atrazine 500 g/ha alone): 24% | inhibition at 1000 g/ha (Digitaria sanguinalis; Digitaria sanguinalis, post-emergence, Atrazine 1000 g/ha alone): 32% | inhibition at 8 g/ha (Amaranthus retroflexus; 2-4 leaves, Table 4): 8% | inhibition at 8 g/ha (Amaranthus retroflexus; 2 leaves, Table 1): 36% | inhibition at 8 g/ha (Amaranthus retroflexus; 2 leaves, Table 5): 0% | inhibition at 16 g/ha (Amaranthus retroflexus; 2-4 leaves, Table 4): 26% | inhibition at 16 g/ha (Amaranthus retroflexus; 2 leaves, Table 1): 58% | inhibition at 16 g/ha (Amaranthus retroflexus; 2 leaves, Table 5): 58% | inhibition at 31 g/ha (Amaranthus retroflexus; 2-4 leaves, Table 4): 39% | inhibition at 31 g/ha (Amaranthus retroflexus; 2 leaves, Table 1): 81% | inhibition at 31 g/ha (Amaranthus retroflexus; 2 leaves, Table 5): 85% | inhibition at 63 g/ha (Amaranthus retroflexus; 2-4 leaves, Table 4): 56% | inhibition at 63 g/ha (Amaranthus retroflexus; 2 leaves, Table 1): 88% | inhibition at 63 g/ha (Amaranthus retroflexus; 2 leaves, Table 5): 71% | inhibition at 125 g/ha (Amaranthus retroflexus; 2-4 leaves, Table 4): 96% | inhibition at 125 g/ha (Amaranthus retroflexus; 2 leaves, Table 1): 95% | inhibition at 125 g/ha (Amaranthus retroflexus; 2 leaves, Table 5): 99% | ED₉₀ (Amaranthus retroflexus; 2-4 leaves, Table 4): ED₉₀(g/ha) 105.79 | ED₉₀ (Amaranthus retroflexus; 2 leaves, Table 1): ED₉₀(g/ha) 68.57 | ED₉₀ (Amaranthus retroflexus; 2 leaves, Table 5): ED₉₀(g/ha) 53 | ED₉₀ (Xanthium strumarium; Atrazine alone): ED₉₀(g/ha) 138.01 | inhibition at 8 g/ha (Xanthium strumarium; Xanthium strumarium, post-emergence, Atrazine 8 g/ha alone): 25% | inhibition at 16 g/ha (Xanthium strumarium; Xanthium strumarium, post-emergence, Atrazine 16 g/ha alone): 21% | inhibition at 31 g/ha (Xanthium strumarium; Xanthium strumarium, post-emergence, Atrazine 31 g/ha alone): 72% | inhibition at 63 g/ha (Xanthium strumarium; Xanthium strumarium, post-emergence, Atrazine 63 g/ha alone): 59% | inhibition at 125 g/ha (Xanthium strumarium; Xanthium strumarium, post-emergence, Atrazine 125 g/ha alone): 84% | ED₂₀ (maize var.Irla; Atrazine alone): ED₂₀(g/ha) ∞ | crop phytotoxicity (maize var.Irla; Atrazine alone): no crop phytotoxicity | % crop phytotoxicity Maize (3 leaves) (maize var.Irla; Atrazine 250 g/ha): 0% | % crop phytotoxicity Maize (3 leaves) (maize var.Irla; Atrazine 500 g/ha): 0% | % crop phytotoxicity Maize (3 leaves) (maize var.Irla; Atrazine 1000 g/ha): 0% | % crop phytotoxicity Maize (3 leaves) (maize var.Irla; Atrazine 2000 g/ha): 0% | percentage phytotoxicity (Eleusine indica [2]; Atrazine 125 g/ha alone): 2% | percentage phytotoxicity (Eleusine indica [2]; Atrazine 250 g/ha alone): 13% | percentage phytotoxicity (Eleusine indica [2]; Atrazine 500 g/ha alone): 17% | percentage phytotoxicity (Eleusine indica [2]; Atrazine 1000 g/ha alone): 43% | ED₅₀ (Eleusine indica [2]; Atrazine alone, 50% phytotoxicity): 1193 g/ha
